The term EC50 denotes the concentration giving half of the maximal effect.

The target of assay [1] is T1, human TLR7 (Homo sapiens, UniProt Q9NYK1).
T1 construct: host or cells: HEK-Blue TLR7 cells (engineered human embryonic kidney cells)
T1 sequence (Q9NYK1 27-1049): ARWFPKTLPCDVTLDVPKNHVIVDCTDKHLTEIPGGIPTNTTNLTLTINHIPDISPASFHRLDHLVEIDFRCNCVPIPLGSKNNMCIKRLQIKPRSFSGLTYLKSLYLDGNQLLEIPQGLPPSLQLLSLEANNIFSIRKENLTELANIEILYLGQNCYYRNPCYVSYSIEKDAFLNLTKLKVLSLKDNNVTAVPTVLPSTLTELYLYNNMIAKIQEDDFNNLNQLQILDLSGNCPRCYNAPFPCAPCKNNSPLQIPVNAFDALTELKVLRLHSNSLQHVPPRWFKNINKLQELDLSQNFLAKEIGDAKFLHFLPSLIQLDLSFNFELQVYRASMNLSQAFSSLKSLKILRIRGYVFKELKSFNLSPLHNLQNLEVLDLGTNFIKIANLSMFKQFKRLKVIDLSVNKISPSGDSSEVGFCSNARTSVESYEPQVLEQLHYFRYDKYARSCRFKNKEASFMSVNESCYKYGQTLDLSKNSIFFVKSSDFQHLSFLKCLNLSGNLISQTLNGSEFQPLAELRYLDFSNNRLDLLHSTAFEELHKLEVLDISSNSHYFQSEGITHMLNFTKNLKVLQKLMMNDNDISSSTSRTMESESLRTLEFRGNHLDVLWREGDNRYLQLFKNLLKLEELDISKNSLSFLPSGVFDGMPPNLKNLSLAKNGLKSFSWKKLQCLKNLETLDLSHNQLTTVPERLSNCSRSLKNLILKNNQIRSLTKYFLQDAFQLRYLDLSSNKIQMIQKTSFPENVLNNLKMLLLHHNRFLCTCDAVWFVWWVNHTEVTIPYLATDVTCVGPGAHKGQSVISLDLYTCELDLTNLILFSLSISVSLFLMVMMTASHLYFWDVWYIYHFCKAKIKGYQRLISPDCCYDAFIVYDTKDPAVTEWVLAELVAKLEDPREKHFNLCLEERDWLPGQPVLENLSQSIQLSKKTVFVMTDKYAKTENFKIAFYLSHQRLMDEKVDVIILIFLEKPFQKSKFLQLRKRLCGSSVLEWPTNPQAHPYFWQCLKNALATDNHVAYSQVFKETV
Description: Human TLR7 agonist activity reporter assay (HEK-Blue TLR7 cells, SEAP reporter). Type of assay: cell-based. Particulars: 18 h treatment. The gist of the method: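 HEK-Blue TLR7 cells (15,000/well) treated with compound for 18 h at 37 °C, 5% CO2. Secreted SEAP measured with Quanti-Blue, 30 min, OD 620 nm. EC50 taken as concentration giving half-maximal response between baseline and maximum.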
For orientation: A reporter such as luciferase makes a cellular process visible.

Assay [2] deals with CD69. The assay can be described thus: Induction of CD69 in human whole blood. The format is cell-based. Particulars: 17 h, CD69 surface staining, 100% set to 1 uM resiquimod. The gist of the method:
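Heparinized human whole blood, RPMI-diluted, incubated with TLR7 agonist (final 1 uM from 1 mM stock) for 17 h at 37 °C. CD69-PE surface staining with CD14/CD19 gating, fix/lysis, then flow cytometry; curves normalized with 1 uM resiquimod as 100%.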

Where [3] appears, read: average where assay repeated, Table A1, read-out: hTLR7 Agonism EC50.
[4] abbreviates: average where assay repeated, Table A1, read-out: hWB CD69 EC50.
[5] abbreviates: Table A2, read-out: hTLR7 Agonism EC50.
Setting [6] is: Table A2, read-out: hWB CD69 EC50.

Like-named read-outs stand apart in the source and are kept apart here.

Regarding `CCC[C@@H](CCO)Nc1nc(N)nc2c(C)nn(Cc3cc(CN4CCNCC4)ccc3OC)c12` [Compound 161, (3S)-3-{[5-amino-1-({2-methoxy-5-[(piperazin-1-yl)methyl]phenyl}methyl)-3-methyl-1H-pyrazolo[4,3-d]pyrimidin-7-yl]amino}hexan-1-ol], the EC50 in assay [1] (setting [3]) was 340 nM; in assay [2] (setting [4]), 132 nM.
For `CCC[C@@H](CCO)Nc1nc(N)nc2c(C)nn(Cc3cc(CNC4CCOCC4)ccc3OC)c12` [Compound 162, (3S)-3-({5-amino-1-[(2-methoxy-5-{[(oxan-4-yl)amino]methyl}phenyl)methyl]-3-methyl-1H-pyrazolo[4,3-d]pyrimidin-7-yl}amino)-hexan-1-ol] the same measures were 294 nM and 90.3 nM.
For `CC[C@@H](CCO)Nc1nc(N)nc2cnn(Cc3cc(CN4CCN(C)CC4)ccc3OC)c12` [Compound 163, (3S)-3-{[5-amino-1-({2-methoxy-5-[(4-methylpiperazin-1-yl)methyl]phenyl}methyl)-1H-pyrazolo[43-d]pyrimidin-7-yl]amino}pentan-l-ol], the EC50 came to 267 nM in assay [1] (setting [3]) and 119 nM in assay [2] (setting [4]).
For `CCC[C@@H](CCO)Nc1nc(N)nc2c(C)nn(Cc3cc(CN4CCN(C)CC4)ccc3OC)c12` [Compound 164, (3S)-3-{[5-amino-1-({2-methoxy-5-[(4-methylpiperazin-1-yl)methyl]phenyl}methyl)-3-methyl-1H-pyrazolo[4,3-d]pyrimidin-7-yl]amino}hexan-1-ol] the same measures were 48.5 nM and 21.7 nM.
As for `CCC[C@@H](CCO)Nc1nc(N)nc2cnn(Cc3cc(CNC4CCOCC4)c(F)cc3OC)c12` [Compound 165, (3S)-3-({5-amino-1-[(4-fluoro-2-methoxy-5-{[(oxan-4-yl)amino]-methyl}phenyl)methyl]-1H-pyrazolo[4,3-d]pyrimidin-7-yl}amino)hexan-1-ol], the EC50 in assay [1] (setting [5]) stood at 89.9 nM; in assay [2] (setting [6]) it was 27.3 nM.
Turning to `CCC[C@@H](CCO)Nc1nc(N)nc2cnn(Cc3cc(CN4CC(O)C4)c(F)cc3OC)c12` [Compound 166, 1-({5-[(5-amino-7-{[(3S)-1-hydroxyhexan-3-yl]amino}-1H-pyrazolo[4,3-d]pyrimidin-1-yl)methyl]-2-fluoro-4-methoxyphenyl}-methyl)azetidin-3-ol], the figures for the EC50 in assay [1] (setting [5]) and in assay [2] (setting [6]) were 116 nM and 34.2 nM, respectively.
For `CCC[C@@H](CCO)Nc1nc(N)nc2cnn(Cc3cc(CN4CCNCC4)c(F)cc3OC)c12` [Compound 167, (3S)-3-{[5-amino-1-({4-fluoro-2-methoxy-5-[(piperazin-1-yl)methyl]phenyl}methyl)-1H-pyrazolo[4,3-d]pyrimidin-7-yl]amino}hexan-1-ol] the same measures were 189 nM and 145 nM.
As for `CCC[C@@H](CCO)Nc1nc(N)nc2cnn(Cc3cc(CN4CCN(CCO)CC4)c(F)cc3OC)c12` [Compound 168, (3S)-3-({5-amino-1-[(4-fluoro-5-{[4-(2-hydroxyethyl)piperazin-1-yl]methyl}-2-methoxyphenyl)-methyl]-1H-pyrazolo[4,3-d]pyrimidin-7-yl}amino)hexan-1-ol], the values for the EC50 in assay [1] (setting [5]) and in assay [2] (setting [6]) were 62.8 nM and 39.2 nM, respectively.
Take `CCC[C@@H](CCO)Nc1nc(N)nc2cnn(Cc3cc(CNC)c(F)cc3OC)c12` [Compound 169, (3S)-3-{[5-amino-1-({4-fluoro-2-methoxy-5-[(methylamino)-methyl]phenyl}methyl)-1H-pyrazolo[4,3-d]pyrimidin-7-yl]amino}hexan-1-ol]: the EC50 came to 43.5 nM in assay [1] (setting [5]) and 6.2 nM in assay [2] (setting [6]).
Taken in the same sequence, the figures for `CCC[C@@H](CCO)Nc1nc(N)nc2cnn(Cc3cc(CN(C)CCN(C)C)cnc3OC)c12` [Compound 170, (3S)-3-[(5-amino-1-{[5-({[2-(dimethyl-amino)ethyl](methyl)amino}-methyl)-2-methoxypyridin-3-yl]methyl}-1H-pyrazolo[4,3-d]pyrimidin-7-yl)amino]hexan-1-ol] were 770 nM and 170 nM.
Turning to `CCC[C@@H](CCO)Nc1nc(N)nc2cnn(Cc3cc(CN4C[C@H]5C[C@@H]4CN5C)c(F)cc3OC)c12` [Compound 171, (3S)-3-({5-amino-1-[(4-fluoro-2-methoxy-5-{[(1R,4R)-5-methyl-2,5-diazabicyclo[2.2.1]heptan-2-yl]methyl}phenyl)methyl]-1H-pyrazolo[4,3-d]pyrimidin-7-yl}amino)hexan-1-ol], the EC50 was determined as 437 nM in assay [1] (setting [5]) and 140 nM in assay [2] (setting [6]).
Taken in the same sequence, the figures for `CCC[C@@H](CCO)Nc1nc(N)nc2cnn(Cc3cc(CNCCO)c(F)cc3OC)c12` [Compound 172, (3S)-3-({5-amino-1-[(4-fluoro-5-{[(2-hydroxyethyl)amino]methyl}-2-methoxyphenyl)methyl]-1H-pyrazolo[4,3-d]pyrimidin-7-yl}amino)hexan-1-ol] were 167 nM and 29.8 nM.
Take `CCC[C@@H](CCO)Nc1nc(N)nc2cnn(Cc3cc(CNCCS(C)(=O)=O)c(F)cc3OC)c12` [Compound 173, (3S)-3-({5-amino-1-[(4-fluoro-5-{[(2-methanesulfonylethyl)amino]methyl}-2-methoxyphenyl)methyl]-1H-pyrazolo[4,3-d]pyrimidin-7-yl}amino)hexan-1-ol]: the results for the EC50 in assay [1] (setting [5]) and in assay [2] (setting [6]) were 40 nM and 23.2 nM, respectively.
On to `CCC[C@@H](CCO)Nc1nc(N)nc2cnn(Cc3nc(CO)ccc3OC)c12` [Compound 174, (3S)-3-[(5-amino-1-{[6-(hydroxyl-methyl)-3-methoxypyridin-2-yl]methyl}-1H-pyrazolo[4,3-d]pyrimidin-7-yl)amino]hexan-1-ol], for which the EC50 in assay [1] (setting [5]) came out at 96.1 nM; in assay [2] (setting [6]), 41.4 nM.
Taken in the same sequence, the figures for `CCC[C@@H](CCO)Nc1nc(N)nc2cnn(Cc3cc(CN4C[C@H]5C[C@@H]4CN5CCO)c(F)cc3OC)c12` [Compound 175, (3S)-3-({5-amino-1-[(4-fluoro-5-{[(1R,4R)-5-(2-hydroxyethyl)-2,5-diazabicyclo[2.2.1]heptan-2-yl]methyl}-2-methoxyphenyl)-methyl]-1H-pyrazolo[4,3-d]pyrimidin-7-yl}amino)hexan-1-ol] were 204 nM and 77 nM.
For `CCC[C@@H](CCO)Nc1nc(N)nc2cnn(Cc3cc(CN4CC[C@H](O)C4)c(F)cc3OC)c12` [Compound 176, (3S)-1-({5-[(5-amino-7-{[(3S)-1-hydroxyhexan-3-yl]amino}-1H-pyrazolo[4,3-d]pyrimidin-1-yl)methyl]-2-fluoro-4-methoxyphenyl}methyl) pyrrolidin-3-ol] the same measures were 57.2 nM and 5.7 nM.
In the case of `CCC[C@@H](CCO)Nc1nc(N)nc2cnn(Cc3cc(CN4CCN(C)CC4)ncc3OC)c12` [Compound 177, (3S)-3-{[5-amino-1-({5-methoxy-2-[(4-methylpiperazin-1-yl)methyl]-pyridin-4-yl}methyl)-1H-pyrazolo[4,3-d]pyrimidin-7-yl]amino}hexan-1-ol], the EC50 stood at 750 nM in assay [1] (setting [5]) and 34.5 nM in assay [2] (setting [6]).
As for `CCC[C@@H](CCO)Nc1nc(N)nc2cnn(Cc3cc(CNC)ncc3OC)c12` [Compound 178, (3S)-3-{[5-amino-1-({5-methoxy-2-[(methylamino)methyl]pyridin-4-yl}methyl)-1H-pyrazolo[4,3-d]pyrimidin-7-yl]amino}hexan-1-ol], the EC50 in assay [1] (setting [5]) was 617 nM; in assay [2] (setting [6]), 33.9 nM.
On to “N7-butyl-1-[(2-methoxy-5- {[(1S,4S)-5-methyl-2,5- diazabicyclo[2.2.1]heptan-2- yl]methyl}phenyl)methyl]- 1H-pyrazolo[4,3-d] pyrimidine-5,7-diamine [Compound 142]”, for which the EC50 in assay [1] (setting [3]) is 94.2 nM; in assay [2] (setting [4]), 29.5 nM.
“N7-butyl-1-{[2-methoxy-5- ({octahydropyrrolo[3,4-c]- pyrrol-2-yl}methyl)phenyl]- methyl}-1H-pyrazolo[4,3- d]pyrimidine-5,7-diamine [Compound 135]”: the EC50 in assay [1] (setting [3]) is 448 nM; in assay [2] (setting [4]), 325 nM.

The values are drawn from US20230118688A1, “1H-PYRAZOLO[4,3-d]PYRIMIDINE COMPOUNDS AS TOLL-LIKE RECEPTOR 7 (TLR7) AGONISTS” (BRISTOL-MYERS SQUIBB COMPANY, priority 2020, published 2023).
